# Reference: patent US7781472B2, “Therapy for the treatment of disease” (TheraVida, Inc., priority 2005, dated 2010)
# Assays:
# healthy human subject [1] = assay: Stimulated saliva flow, case study of tolterodine and pilocarpine (Example 6); format: in vivo; conditions: 2 mg tolterodine tartrate alone
# Description: In this study, the effect of tolterodine, pilocarpine, the combination of the two, and placebo was measured in separate, yet identical, studies in a single individual.
# Effect of Tolterodine—A healthy human subject was given a 2 mg dose of tolterodine tartrate and the amount of salivation was measured with time over an 8 hour period. As shown in FIGS. 6 and 7 (♦, diamond), the amount of saliva flow collected over 2 minute periods decreased after dosing and the saliva flow remained low after 3 hrs.
# Effect of Dose Ratio Between Tolterodine and Pilocarpine—In this experiment the results of two separate dose ratios between tolterodine and pilocarpine were compared with the results of placebo and administration of tolterodine alone. In one experiment, 2 mg of tolterodine was administered to a healthy individual and saliva flow was measured for 8 hours. Using a similar protocol, 2 mg of tolterodine was administered to a healthy individual at t=0, followed by 5 mg of pilocarpine at t=30 min. Similarly, 2 mg of tolterodine was administered to a healthy individual at t=0, followed by 10 mg of pilocarpine at t=30 min. Finally, the results were compared with the administration of placebo (FIG. 6 (●, closed circle)). […] Therefore, an effective dose ratio for the combination […] and pilocarpine is when 2 mg of tolterodine is combined with 10 mg of pilocarpine.
# Effect of Combination of Tolterodine and Pilocarpine—In a separate human study, the combination of tolterodine and pilocarpine was administered to a healthy human subject. To the subject 2 mg of tolterodine followed by 10 mg of pilocarpine were administered with various delays in the administration of pilocarpine. Saliva flow was measured as before.
# In one study, 10 mg of pilocarpine was administered to the subject 15 minutes after the administration of 2 mg of tolterodine. Saliva flow was measured as before. In another study, 10 mg of pilocarpine was administered to the subject 22 minutes after the administration of 2 mg of tolterodine. Saliva flow was measured as before. […] Saliva flow was measured as before.
# healthy human subject [2] = assay: Stimulated salivary flow, case study of oxybutynin and cevimeline alone and combined (Example 5); format: in vivo; conditions: for Amount of Saliva Collecetd over 2 min: cevimeline 30 mg and/or oxybutynin 5 mg oral, single subject, in g; for amount of saliva flow collected over 2 minute periods after dosing (in words) / time at which saliva flow reached the pre-dose level: single agent alone (oxybutynin HCl 5 mg; cevimeline 30 mg)
# Description: In this study, the effect of oxybutynin, cevimeline, the combination of the two, and placebo was measured in separate studies in a single individual.
# Effect of Oxybutynin—A healthy human subject was given a 5 mg dose of oxybutynin HCl and the amount of salivation was measured with time over an 8 hour period. As shown in FIG. 5 (●, circle), the amount of saliva flow collected over 2 minutes periods decreased after dosing and the saliva flow remained low after 3 hrs. The amount of saliva flow started increasing after 3 hrs and continued increasing reaching the pre-dose level after 8 hrs post-dosing. The data generated in this study is consistent with the literature data.
# Effect of Cevimeline—In a separate human study the effect of administering 30 mg of cevimeline was evaluated in a healthy human subject to ensure that cevimeline indeed increases salivary gland flow. […] The decrease in saliva flow continued until it reached about the normal saliva flow and pre-dosing level after about 6 hrs.
# Effect of Combination of Oxybutynin and Cevimeline—In a separate human study, the combination of oxybutynin and cevimeline was administered to a healthy human subject. To the subject 5 mg of oxybutynin followed simultaneously by 30 mg of cevimeline, with no time delay, was administered. Saliva flow was measured as before. Results are shown in FIG. 5 (▪, square), where the combination is referred to as THVD-102.
# healthy human subject [3] = assay: Stimulated saliva flow, case study of oxybutynin and pilocarpine alone and combined (Example 4); format: in vivo; conditions: FIG. 1; for amount of saliva flow collected over 2 minute periods after dosing (in words): single agent alone (oxybutynin HCl 5 mg; pilocarpine HCl), single healthy subject, 8 hour period; for time at which saliva flow reached the pre-dose level: single agent alone, post-dosing
# Description: (§1) The following measurements are made just prior to and at frequent intervals for up to 6 hours post dose: • Salivary flow is determined by chewing Parafilm for 2 minutes • Dry mouth is determined by VAS • Urine volume/void and frequency over 6 hours post dose is measured • Blood samples are taken for pharmacokinetics at pre-dose, and at 0.5, 1, 2, 3, 4, and 6 hours post dose • Food and water intake are standardized over the 6 hour period
# In this study, the effect of oxybutynin, pilocarpine, the combination of the two, and placebo was measured in six separate, yet identical, studies in a single individual.
# Effect of Oxybutynin—A healthy human subject was given a 5 mg dose of oxybutynin HCl and the amount of salivation was measured with time over an 8 hour period. […]
# [4] = Plasma concentration of oxybutynin after 5 mg oxybutynin alone or followed by 5 mg pilocarpine, four way crossover clinical trial; format: in vivo, human; conditions: 5 mg pilocarpine 30 min after 5 mg oxybutynin
# Description: as §1
# The study is a double blind, randomized, placebo-controlled, with 4 sequences (4 doses over 4 weeks) with the drugs being administered orally as a single dose. There is a One-week washout between study days. […]
# Plasma Concentration of Oxybutynin—In a separate study, the plasma concentration of oxybutynin was measured in two groups of subjects: one group received 5 mg of oxybutynin alone and another group received 5 mg of oxybutynin followed by 5 mg pilocarpine after 30 min. The plasma concentrations were measured before the administration of oxybutynin and in hours 1, 2, 3, 4, and 6 after its administration. […]
# [5] = Time −0.17 hr (pre-dose), text gives saliva flow in g/2 min
SMILES,Amount of Saliva Collecetd over 2 min (healthy human subject [2]; Time 0 hr),Amount of Saliva Collecetd over 2 min (healthy human subject [2]; Time 0.5 hr),Amount of Saliva Collecetd over 2 min (healthy human subject [2]; Time 1 hr),Amount of Saliva Collecetd over 2 min (healthy human subject [2]; Time 1.5 hr),Amount of Saliva Collecetd over 2 min (healthy human subject [2]; Time 2 hr),Amount of Saliva Collecetd over 2 min (healthy human subject [2]; Time 3 hr),Amount of Saliva Collecetd over 2 min (healthy human subject [2]; Time 4 hr),Amount of Saliva Collecetd over 2 min (healthy human subject [2]; Time 5 hr),Amount of Saliva Collecetd over 2 min (healthy human subject [2]; Time 6 hr),Amount of Saliva Collecetd over 2 min (healthy human subject [2]; Time 8 hr),Amount of Saliva Collecetd over 2 min (healthy human subject [2]; [5]),amount of saliva flow collected over 2 minute periods after dosing (in words) (healthy human subject [2]; FIG. 5),time at which saliva flow reached the pre-dose level (healthy human subject [2]; FIG. 5),amount of saliva flow collected over 2 minute periods after dosing (in words) (healthy human subject [3]),time at which saliva flow reached the pre-dose level (healthy human subject [3]),other results
"Cc1ccc(O)c([C@H](CCN(C(C)C)C(C)C)c2ccccc2)c1 (stereo in doubt) [tolterodine, (R)-2-[3-[bis(1-methylethyl-amino]-1-phenylpropyl]-4-methylphenol [R—(R*,R*)]-2,3-dihydroxybutanedionic acid]",,,,,,,,,,,,,,,,"time after which saliva flow started increasing again (healthy human subject [1]): about 4 hrs; amount of saliva flow collected over 2 minute periods after dosing (in words) (healthy human subject [1]; 8 hour period, FIGS. 6 and 7): decreased; time at which saliva flow reached the pre-dose levels (healthy human subject [1]; not completely reached at end of observation): > 8 h"
"CC1OC2(CS1)CN1CCC2CC1 (stereo not shown) [Cevimeline, cevimeline]",2.6273,2.7791,4.1213,4.6029,3.7314,3.5888,3.5914,2.6099,2.205,1.7973,2.4808,increased sharply,about 6 hrs,,,"time of peak saliva flow (healthy human subject [2]; 30 mg cevimeline alone, FIG. 5): close to two hours; Amount of Saliva Collecetd over 2 min (healthy human subject [2]; Time 2.5 hr): 3.7641; Amount of Saliva Collecetd over 2 min (healthy human subject [2]; Time 3.5 hr): 3.9316"
"CCN(CC)CC#CCOC(=O)C(O)(c1ccccc1)C1CCCCC1 (stereo not shown) [Oxybutynin, oxybutynin]",2.4536,1.8558,1.2308,1.2326,1.3548,1.1829,1.5868,2.1475,2.0096,2.3028,2.2208,decreased,8 h,decreased,8 h,"time after which saliva flow started increasing again (healthy human subject [2]; 5 mg oxybutynin HCl alone, FIG. 5): 3 h; time after which saliva flow started increasing again (healthy human subject [3]; 5 mg oxybutynin HCl alone): 3 h"
CC[C@@H]1C(=O)OC[C@@H]1Cc1cncn1C [pilocarpine],,,,,,,,,,,,,,increased sharply,about 5 hrs,time of peak saliva flow (healthy human subject [3]; pilocarpine HCl alone): half an hour; effect of pilocarpine on the plasma concentration of oxybutynin [4]: does not affect the plasma concentration of oxybutynin at all
